# From patent publication US5925618A, “Peptides useful as somatostatin antagonists” (American Cyanamid Company, priority 1998, dated 1999)
# Square brackets hold non-standard residues; d marks the D form. Peptide text beside a SMILES is read from it.
# Biological target: T1, rat SSTR2 (Rattus norvegicus, UniProt P30680)
# T1 construct: expressed in transfected cells; host or cells: GH4C1 rat pituitary tumor cells
# Assay: cAMP accumulation in forskolin-stimulated GH4 C1/SSTR2 cells
# Assay type: cell-based
# Conditions: Forskolin 1.25 μM + MK 678 10 nM, no peptide 1
# Description: A primary effect of SRIF upon mammalian cells is the reduction of cyclic adenosine 3',5'-monophosphate(cAMP) levels, via inhibition of adenylyl cyclase. This is the basis of a common assay for SRIF agonists and antagonists, whereby SRIF agonists reduce artificially stimulated cAMP levels, and SRIF antagonists reverse the effect of SRIF. The rat pituitary tumor cell line GH4 C1 predominantly expresses SSTR2, and responds to SRIF and to forskolin, a stimulator of adenylate cyclase (see C. M. Eppler, et al., J. Biol. Chem., 267, 15603-15612, 1992, incorporated herein by reference). A highly sensitive assay for SRIF agonists and antagonists results from additionally transfecting GH4 C1 cells with the cloned rat SSTR2, (see L. A. Price, et al., Molecular and Cellular Biology, 15, 6188-6195, 1995, incorporated herein by reference). This increases the response to SRIF and provides a greater dynamic range for the measurement of SRIF antagonist activity.
# Stimulation of cells. GH4 C1 /SSTR2 cells, grown in DMEM with 10% bovine serum, are released from a tissue culture dish by incubation for several minutes at 37° C. with PBS containing 0.5 mM EDTA. Cells are washed in induction buffer (PBS containing 100 μM IBMX (an inhibitor of cAMP breakdown) and 2 mM CaCl2) at room temperature, and resuspended at 2×10^6 /mL in induction buffer. Into each well of a 96-well tray are added 50 μL of a 2× concentration of stimulants in induction buffer. These include (at final concentration) 1.25 μM forskolin, 100 nM SRIF or 10 nM of the SSTR2-selective agonist MK678 and test peptides at various concentrations. To initiate stimulation of the cells, 50 μL (100,000) cells are added to each well, mixed by shaking 10 seconds on a plate shaker and placed at 37° C. for 15 minutes. Stimulation is arrested and cells are lysed by adding 15 μL 0.33N HCl to each well and incubating the plate for 30 minutes at 37° C. Samples are neutralized by addition of 15 μL 0.25N NaOH/50 mM Hepes pH 7.4. Baseline cAMP levels are determined in samples with no added forskolin or SRIF, and each treatment is performed in triplicate.
# cAMP assay. To measure accumulated cAMP in the samples, a radioimmunoassay is employed. The scintillation proximity assay (SPA, Amersham, Arlington Heights, Ill.) allows the rapid measurement of ^125 I cAMP bound to a specific antibody without separating bound radioligand from free radioligand. Each of the following reagents (50 μL) are added per well in a 96-well tray: supernatants from the cell stimulation; ^125 I cAMP; SPA beads conjugated to monkey anti-rabbit IgG antibodies; and rabbit anti-cAMP antibodies. For the standard curve, known amounts of cAMP (0.2-12.8 pmol) are added in place of cell supernatants. The 96-well tray is sealed, shaken at room temperature overnight and measured for bound radioligand in a MicroBeta liquid scintillation counter (Wallac, Gaithersburg, Md.). The standard curve is determined for each experiment by performing a nonlinear regression (exponential decay) analysis of cpm measured for the cAMP standards vs. their log concentrations, and test sample values are determined by using Prism software (Graphpad Software Inc., San Diego, Calif.) and are shown in Table II and FIG. 1. FIG. I illustrates the antagonist activity of Peptide 1.
# The intrinsic activity of an SRIF antagonist is the percent reversal of the SSTR2, activation by SRIF or MK678, wherein 0% is defined by cAMP levels in samples treated with forskolin plus SRIF or MK678 and 100% is the cAMP level measured after treatment with forskolin alone. Therefore, increased intrinsic activity of a test compound indicates increased antagonist activity of said test compound.
# FIG. […]
# An inverse agonist is a compound that is not only a pure antagonist (i.e. lacking agonist activity), but also blocks the constitutive activity of an unoccupied receptor. One indication of inverse agonist activity is the ability of a SRIF antagonist to increase cAMP levels in the absence of added SRIF. […]
# T1 sequence (P30680 whole entry): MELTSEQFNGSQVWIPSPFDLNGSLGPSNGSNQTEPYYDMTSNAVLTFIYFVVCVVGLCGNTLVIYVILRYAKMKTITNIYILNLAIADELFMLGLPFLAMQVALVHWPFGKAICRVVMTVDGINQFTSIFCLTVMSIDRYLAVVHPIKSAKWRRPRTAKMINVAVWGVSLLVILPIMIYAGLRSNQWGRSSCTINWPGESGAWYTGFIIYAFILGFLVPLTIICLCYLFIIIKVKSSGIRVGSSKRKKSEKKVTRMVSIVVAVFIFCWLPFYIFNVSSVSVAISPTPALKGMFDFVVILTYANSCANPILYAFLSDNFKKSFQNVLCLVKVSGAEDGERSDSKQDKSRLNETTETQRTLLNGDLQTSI
row,cAMP [pM per 4 × 10^4 cells],Structure (SMILES)
1,0.91,"CC(C)[C@@H]1NC(=O)[C@H](CCCCN)NC(=O)[C@@H](Cc2c[nH]c3ccccc23)NC(=O)[C@H](Cc2ccc(O)cc2)NC(=O)[C@H](C)N(C)C(=O)[C@H](Cc2ccccc2)NC1=O [MK678, reference compound]"

# Same assay, conditions: Forskolin 1.25 μM alone
row,cAMP [pM per 4 × 10^4 cells],Structure (SMILES)
1,3.04,"C=C[C@@]1(C)CC(=O)[C@]2(O)[C@@]3(C)[C@@H](O)CCC(C)(C)[C@@H]3[C@H](O)[C@H](OC(C)=O)[C@@]2(C)O1 [Forskolin, forskolin, reference compound]"

# Same assay, conditions: GH4-C1; test peptide 2 μM; read-out: cAMP Assay, Intrinsic activity (percent reversal of SSTR2 activation by SRIF or MK678)
row,Emax [%],Structure (SMILES)
1,13,"CC[C@@H](C)[C@@H](NC(=O)[C@@H](Cc1ccccc1)NC(=O)[C@@H](C)NC(C)=O)C(=O)N[C@H](CCCNC(=N)N)C(=O)N[C@H](Cc1c[nH]c2ccccc12)C(=O)N[C@H](Cc1ccccc1)C(N)=O [Peptide 2, a-f-i-r-w-f] (Ac-[dA][dF][dI][dR][dW][dF]-NH2)"
2,9.33,"CC[C@@H](C)[C@@H](NC(=O)[C@@H](C)NC(=O)[C@@H](Cc1c[nH]cn1)NC(C)=O)C(=O)N[C@H](CCCNC(=N)N)C(=O)N[C@H](Cc1c[nH]c2ccccc12)C(=O)N[C@H](Cc1ccccc1)C(N)=O [Peptide 3, h-a-i-r-w-f] (Ac-[dH][dA][dI][dR][dW][dF]-NH2)"
3,41.8,"CC(=O)N[C@H](Cc1c[nH]cn1)C(=O)N[C@H](Cc1ccccc1)C(=O)N[C@H](C)C(=O)N[C@H](CCCNC(=N)N)C(=O)N[C@H](Cc1c[nH]c2ccccc12)C(=O)N[C@H](Cc1ccccc1)C(N)=O [Peptide 4, h-f-a-r-w-f] (Ac-[dH][dF][dA][dR][dW][dF]-NH2)"
4,44.1,"CC[C@@H](C)[C@@H](NC(=O)[C@@H](Cc1ccccc1)NC(=O)[C@@H](Cc1c[nH]cn1)NC(C)=O)C(=O)N[C@H](C)C(=O)N[C@H](Cc1c[nH]c2ccccc12)C(=O)N[C@H](Cc1ccccc1)C(N)=O [Peptide 5, h-f-i-a-w-f] (Ac-[dH][dF][dI][dA][dW][dF]-NH2)"
5,13.4,"CC[C@@H](C)[C@@H](NC(=O)[C@@H](Cc1ccccc1)NC(=O)[C@@H](Cc1c[nH]cn1)NC(C)=O)C(=O)N[C@H](CCCNC(=N)N)C(=O)N[C@H](C)C(=O)N[C@H](Cc1ccccc1)C(N)=O [Peptide 6, h-f-i-r-a-f] (Ac-[dH][dF][dI][dR][dA][dF]-NH2)"
6,2.76,"CC[C@@H](C)[C@@H](NC(=O)[C@@H](Cc1c[nH]cn1)NC(C)=O)C(=O)N[C@H](CCCNC(=N)N)C(=O)N[C@H](Cc1c[nH]c2ccccc12)C(=O)N[C@H](Cc1ccccc1)C(N)=O [Peptide 8, h-i-r-w-f] (Ac-[dH][dI][dR][dW][dF]-NH2)"
7,6.36,"CC(=O)N[C@H](Cc1c[nH]cn1)C(=O)N[C@H](Cc1ccccc1)C(=O)N[C@H](CCCNC(=N)N)C(=O)N[C@H](Cc1c[nH]c2ccccc12)C(=O)N[C@H](Cc1ccccc1)C(N)=O [Peptide 9, h-f-r-w-f] (Ac-[dH][dF][dR][dW][dF]-NH2)"
8,25.3,"CC[C@@H](C)[C@@H](NC(=O)[C@@H](Cc1ccccc1)NC(=O)[C@@H](Cc1c[nH]cn1)NC(C)=O)C(=O)N[C@H](Cc1c[nH]c2ccccc12)C(=O)N[C@H](Cc1ccccc1)C(N)=O [Peptide 10, h-f-i-w-f] (Ac-[dH][dF][dI][dW][dF]-NH2)"
9,12.1,"CC[C@@H](C)[C@@H](NC(=O)[C@@H](Cc1ccccc1)NC(=O)[C@@H](Cc1c[nH]cn1)NC(C)=O)C(=O)N[C@H](CCCNC(=N)N)C(=O)N[C@H](Cc1ccccc1)C(N)=O [Peptide 11, h-f-i-r-f] (Ac-[dH][dF][dI][dR][dF]-NH2)"
10,29.1,"CC[C@@H](C)[C@@H](NC(=O)[C@@H](Cc1ccccc1)NC(=O)[C@@H](Cc1c[nH]cn1)NC(C)=O)C(=O)N[C@H](CCCNC(=N)N)C(=O)N[C@H](Cc1c[nH]c2ccccc12)C(N)=O [Peptide 12, h-f-i-r-w] (Ac-[dH][dF][dI][dR][dW]-NH2)"
11,26.2,"CC[C@@H](C)[C@@H](NC(=O)[C@@H](Cc1ccccc1)NC(=O)[C@H](Cc1c[nH]cn1)NC(C)=O)C(=O)N[C@H](CCCNC(=N)N)C(=O)N[C@H](Cc1c[nH]c2ccccc12)C(=O)N[C@H](Cc1ccccc1)C(N)=O [Peptide 13, H-f-i-r-w-f] (Ac-H[dF][dI][dR][dW][dF]-NH2)"
12,29.6,"CC[C@@H](C)[C@@H](NC(=O)[C@H](Cc1ccccc1)NC(=O)[C@@H](Cc1c[nH]cn1)NC(C)=O)C(=O)N[C@H](CCCNC(=N)N)C(=O)N[C@H](Cc1c[nH]c2ccccc12)C(=O)N[C@H](Cc1ccccc1)C(N)=O [Peptide 14, h-F-i-r-w-f] (Ac-[dH]F[dI][dR][dW][dF]-NH2)"
13,9.71,"CC[C@H](C)[C@H](NC(=O)[C@@H](Cc1ccccc1)NC(=O)[C@@H](Cc1c[nH]cn1)NC(C)=O)C(=O)N[C@H](CCCNC(=N)N)C(=O)N[C@H](Cc1c[nH]c2ccccc12)C(=O)N[C@H](Cc1ccccc1)C(N)=O [Peptide 15, h-f-I-r-w-f] (Ac-[dH][dF]I[dR][dW][dF]-NH2)"
14,43.6,"CC[C@@H](C)[C@@H](NC(=O)[C@@H](Cc1ccccc1)NC(=O)[C@@H](Cc1c[nH]cn1)NC(C)=O)C(=O)N[C@@H](CCCNC(=N)N)C(=O)N[C@H](Cc1c[nH]c2ccccc12)C(=O)N[C@H](Cc1ccccc1)C(N)=O [Peptide 16, h-f-i-R-w-f] (Ac-[dH][dF][dI]R[dW][dF]-NH2)"
15,50.2,"CC[C@@H](C)[C@@H](NC(=O)[C@@H](Cc1ccccc1)NC(=O)[C@@H](Cc1c[nH]cn1)NC(C)=O)C(=O)N[C@H](CCCNC(=N)N)C(=O)N[C@@H](Cc1c[nH]c2ccccc12)C(=O)N[C@H](Cc1ccccc1)C(N)=O [Peptide 17, h-f-i-r-W-f] (Ac-[dH][dF][dI][dR]W[dF]-NH2)"
16,46.7,"CC[C@@H](C)[C@@H](NC(=O)[C@@H](Cc1ccccc1)NC(=O)[C@@H](Cc1c[nH]cn1)NC(C)=O)C(=O)N[C@H](CCCNC(=N)N)C(=O)N[C@H](Cc1c[nH]c2ccccc12)C(=O)N[C@@H](Cc1ccccc1)C(N)=O [Peptide 18, h-f-i-r-w-F] (Ac-[dH][dF][dI][dR][dW]F-NH2)"
17,33.3,"CC[C@@H](C)[C@@H](NC(=O)[C@@H](Cc1ccc(O)cc1)NC(=O)[C@@H](CCCCN)NC(C)=O)C(=O)N[C@H](CCCNC(=N)N)C(=O)N[C@H](Cc1c[nH]c2ccccc12)C(=O)N[C@H](Cc1ccccc1)C(N)=O [Peptide 19, k-y-i-r-w-f] (Ac-[dK][dY][dI][dR][dW][dF]-NH2)"
18,56.5,"CC[C@@H](C)[C@@H](NC(=O)[C@@H](Cc1ccc(O)cc1)NC(=O)[C@@H](Cc1c[nH]cn1)NC(C)=O)C(=O)N[C@H](CCCNC(=N)N)C(=O)N[C@H](Cc1c[nH]c2ccccc12)C(=O)N[C@H](Cc1ccccc1)C(N)=O [Peptide 20, h-y-i-r-w-f] (Ac-[dH][dY][dI][dR][dW][dF]-NH2)"
19,54.7,"CC[C@@H](C)[C@@H](NC(=O)[C@@H](Cc1c[nH]c2ccccc12)NC(=O)[C@@H](Cc1c[nH]cn1)NC(C)=O)C(=O)N[C@H](CCCNC(=N)N)C(=O)N[C@H](Cc1c[nH]c2ccccc12)C(=O)N[C@H](Cc1ccccc1)C(N)=O [Peptide 21, h-w-i-r-w-f] (Ac-[dH][dW][dI][dR][dW][dF]-NH2)"

row,Structure (SMILES),Emax [%]
1,"CC[C@@H](C)[C@@H](NC(=O)[C@@H](Cc1ccccc1)NC(C)=O)C(=O)N[C@H](CCCNC(=N)N)C(=O)N[C@H](Cc1c[nH]c2ccccc12)C(=O)N[C@H](Cc1ccccc1)C(N)=O [Peptide 7, f-i-r-w-f] (Ac-[dF][dI][dR][dW][dF]-NH2)",-7.2

# Same assay, conditions: forskolin stimulated cells; agonist alone or with 10 μM peptide 1
Maximum (cAMP level of agonist dose response),Minimum (cAMP level of agonist dose response),Structure (SMILES)
6.431,2.673,"CC(C)[C@@H]1NC(=O)[C@H](CCCCN)NC(=O)[C@@H](Cc2c[nH]c3ccccc23)NC(=O)[C@H](Cc2ccc(O)cc2)NC(=O)[C@H](C)N(C)C(=O)[C@H](Cc2ccccc2)NC1=O [MK678, reference compound]"
